The OPERA property sets (Mansouri et al. 2018)

SMILES	logP
COc1c(O)c(Cl)c(Cl)c(Cl)c1Cl	4.59
COc1ccc(Cn2cc(F)c(=O)[nH]c2=O)cc1	1.04
CC(C)(C)C(COc1ccc(-c2ccccc2)cc1)OC(=O)n1ccnc1 (configuration not stated)	4.56
CCCNC(=O)CCn1ccc(=O)c(O)c1C	-0.4
COc1ccc(OCC(OC(=O)n2ccnc2)C(C)(C)C)cc1 (configuration not stated)	3.46
Nn1c(S)nnc(-c2cc(Cl)cc(Cl)c2)c1=O	2.67
COCC(C)n1ccc(=O)c(O)c1C (configuration not stated)	-0.26
CNC12CCCCC1COc1ccccc12 (configuration not stated)	3.31
NS(=O)(=O)c1cc2c(cc1[N+](=O)[O-])N=CNS2(=O)=O	0.08
CC1OC(=O)C(C)C(O)C1C (configuration not stated)	0.36
CCOC(=O)OCn1c(=O)[nH]cc(F)c1=O	0.15
CCOC(=O)c1ccc(OCC(OC(=O)n2ccnc2)C(C)(C)C)cc1 (configuration not stated)	4.12
CCCOC(=O)c1ccoc1	2.36
COC(=O)NC1=NCC(c2ccc(C(C)C)cc2)N1 (configuration not stated)	2.6
NC(=O)c1cnc2n(c1=O)CCCC2	-0.38
O=P(OCC(Br)CBr)(OCC(Br)CBr)OCC(Br)CBr (configuration not stated)	4.29
Nc1c(Cl)c(Cl)c(Cl)c(Cl)c1Cl	4.82
CNC(=O)Oc1cc(C)c(N(C)C)c(C)c1	2.56
O=C(Cc1cccnc1)NN1CC=CCC1	0.05

SMILES	logP
N#Cc1cccnc1	0.36
Cc1nn(-c2ccccc2)c(Nc2ccccc2)c1[N+](=O)[O-]	2.98
Cc1nnc(C(C)(C)C)c(=O)n1N	1.03
CC(=O)N1c2ccc(C)cc2C2CN(C)CCC21 (configuration not stated)	1.25
CCCC(=O)N1CCCC1=O	1.18
O=C(Nc1ncnc2c1ncn2[C@@H]1O[C@H](CO)C[C@@H]1F)c1ccccc1	0.73
NS(=O)(=O)c1cc2c(cc1C(F)(F)F)NC=NS2(=O)=O	0.32
CCNc1nc(C)c(C(=O)CCN(C)C)s1	2.21
Cc1cc(O)c(N)nn1	-0.85
CS(=O)(=O)c1ccc(OCC(=O)O)cc1	0.06
CC(=O)NC(CO)C(N)=O (configuration not stated)	-1.87
CCOC(=O)Nc1ccc2c(c1)N(C(=O)CCN1CCOCC1)c1ccccc1S2	2.98
COC(=O)n1cc(CC(NC(=O)CC2NC(=O)C3C4CCC(CC4)N3C2=O)C(=O)NC(Cc2ccccc2)C(=O)N(C)Cc2ccccc2)c2ccccc21 (configuration not stated)	4.05
CN(C)C(=O)c1cccc(Oc2ccccc2)c1	2.57
COc1cc(N)ccc1C(=O)O	0.45
OCCN(CCO)Cc1cccc(COc2ccccc2)c1	2.33
CNc1nc(C)c(C(=O)CCN2CCCCC2)s1	2.21
COC(=O)c1ccccc1S(=O)(=O)NC(=O)Nc1nc(C)nc(OC)n1	2.2
CC(=O)NN1CC=CCC1	0.52

SMILES	logP
CNC12CC=CCC1c1ccccc1C2 (configuration not stated)	3.28
Nc1cc(Cl)c(Cl)c(Cl)c1Cl	4.27
COc1c(O)ccc(O)c1OC	0.61
CCCC(=O)n1c(=O)[nH]cc(F)c1=O	0.67
CCCCn1ccc(=O)c(O)c1CC	1.22
Cc1c(O)c(=O)ccn1C	-0.77
CCOc1ccc(OCC(OC(=O)n2ccnc2)C(C)(C)C)cc1 (configuration not stated)	3.86
O=[N+]([O-])c1ccc(Oc2ccc(Cl)cc2Cl)cc1	4.64
Cc1cc(C(=O)O)ccc1N	1.37
CN(C)CCN1C(=O)c2ccccc2Nc2cc(Cl)ccc21	3.73
O=C1N[C@@H](Cc2ccccc2)C(=O)N[C@H]1Cc1ccccc1	1.59
NS(=O)(=O)c1cc2c(cc1C(F)(F)C(F)(F)F)N=CNS2(=O)=O	1.05
Cc1cccn2c(=O)ccnc12	0.79
Cc1nc(N)sc1C(=O)CCN1CCCC1	1.74
O=C(O)COc1cc(Cl)cc(Cl)c1	2.84
CC(=O)n1cc(CC(NC(=O)CC2NC(=O)C3C4CCC(CC4)N3C2=O)C(=O)NC(Cc2ccccc2)C(=O)N(C)Cc2ccccc2)c2ccccc21 (configuration not stated)	3.69
O=C(O)Cc1ccc(C(=O)O)cc1	1.24
CC(CF)NCC(O)COc1cccc2[nH]c3ccccc3c12 (configuration not stated)	2.81
CC(C)(C)C(COc1ccc(Cl)cc1)OC(=O)n1ccnc1 (configuration not stated)	4.19
